Reference: patent publication US5620892A, “Strain of Saccharomyces cerevisiae expressing the gene encoding potassium transporter minK” (priority 1993, dated 1997)

Key:
HminK [1] = target: T1, HminK (Homo sapiens, UniProt P15382, S38G); assay: Inhibition of growth in agar, HminK strain; type: cell-based; parameters: key: + indicates compound produced a zone on inhibition; details: cultures grown in inducing medium (2% galactose) embedded in agar; scored after 48-hour incubation at 30° C.
T1 construct: mRNA in Xenopus oocytes (A3)
Experimental: (§1) Cultures of strains containing the pGAL::HminK plasmid or the pGAL::TRK1 plasmid were grown in inducing media (2% galactose) at 30° C. with vigorous aeration. Inhibitors were added to cultures over a range of concentrations. Samples were removed at various intervals and the optical density at 600 nm was determined. Growth measurements were normalized to values obtained for growth in the absence of drug and are plotted as Relative Growth versus concentration (FIG. 6). Similar cultures grown in inducing medium were embedded in agar and assessed for growth in presence of the compounds listed in Table 1. Plates were scored after a 48-hour incubation at 30° C.; "+" denotes growth inhibition.

HminK [2] = target: T1, HminK; assay: Challenge of the pGAL::HminK-transformed double mutant on agar plates at 100 mM and 0.1 mM KCl; type: cell-based; details: clofilium 100 μM; 100 mM and 0.1 mM potassium chloride
Experimental: (§2) In another experiment, the double mutant was transformed with pGAL vector including either TRK1 or HminK as described above. The transformed strains were then separately challenged with clofilium (100 μM) and dofetilide […] at 100 mM and 0.1 mM of potassium chloride.
(§3) Cultures of K^+ transporter mutant strains containing either pYES2 vector, pGAL::TRK1 or pGAL::HminK plasmids were grown in inducing media (2% galactose) at 30° C. with vigorous aeration. A. Serial dilutions of each culture were spotted onto agar plates containing either 100 mM or 0.1 mM. KCl. B. Serial dilutions of strains containing pGAL::TRK1 or pGAL::HminK plasmids were spotted onto agar plates containing 100 μM clofilium or 1 μM dofetilide at both KCl concentrations. All plates were incubated at 30° C. and scored after 2 days.

TRK1 [3] = target: T2, TRK1 (Saccharomyces cerevisiae, UniProt P12685); assay: Challenge of the pGAL::TRK1-transformed double mutant on agar plates at 100 mM and 0.1 mM KCl; type: cell-based; details: clofilium 100 μM; 100 mM and 0.1 mM potassium chloride
T2 sequence (P12685 1-1235): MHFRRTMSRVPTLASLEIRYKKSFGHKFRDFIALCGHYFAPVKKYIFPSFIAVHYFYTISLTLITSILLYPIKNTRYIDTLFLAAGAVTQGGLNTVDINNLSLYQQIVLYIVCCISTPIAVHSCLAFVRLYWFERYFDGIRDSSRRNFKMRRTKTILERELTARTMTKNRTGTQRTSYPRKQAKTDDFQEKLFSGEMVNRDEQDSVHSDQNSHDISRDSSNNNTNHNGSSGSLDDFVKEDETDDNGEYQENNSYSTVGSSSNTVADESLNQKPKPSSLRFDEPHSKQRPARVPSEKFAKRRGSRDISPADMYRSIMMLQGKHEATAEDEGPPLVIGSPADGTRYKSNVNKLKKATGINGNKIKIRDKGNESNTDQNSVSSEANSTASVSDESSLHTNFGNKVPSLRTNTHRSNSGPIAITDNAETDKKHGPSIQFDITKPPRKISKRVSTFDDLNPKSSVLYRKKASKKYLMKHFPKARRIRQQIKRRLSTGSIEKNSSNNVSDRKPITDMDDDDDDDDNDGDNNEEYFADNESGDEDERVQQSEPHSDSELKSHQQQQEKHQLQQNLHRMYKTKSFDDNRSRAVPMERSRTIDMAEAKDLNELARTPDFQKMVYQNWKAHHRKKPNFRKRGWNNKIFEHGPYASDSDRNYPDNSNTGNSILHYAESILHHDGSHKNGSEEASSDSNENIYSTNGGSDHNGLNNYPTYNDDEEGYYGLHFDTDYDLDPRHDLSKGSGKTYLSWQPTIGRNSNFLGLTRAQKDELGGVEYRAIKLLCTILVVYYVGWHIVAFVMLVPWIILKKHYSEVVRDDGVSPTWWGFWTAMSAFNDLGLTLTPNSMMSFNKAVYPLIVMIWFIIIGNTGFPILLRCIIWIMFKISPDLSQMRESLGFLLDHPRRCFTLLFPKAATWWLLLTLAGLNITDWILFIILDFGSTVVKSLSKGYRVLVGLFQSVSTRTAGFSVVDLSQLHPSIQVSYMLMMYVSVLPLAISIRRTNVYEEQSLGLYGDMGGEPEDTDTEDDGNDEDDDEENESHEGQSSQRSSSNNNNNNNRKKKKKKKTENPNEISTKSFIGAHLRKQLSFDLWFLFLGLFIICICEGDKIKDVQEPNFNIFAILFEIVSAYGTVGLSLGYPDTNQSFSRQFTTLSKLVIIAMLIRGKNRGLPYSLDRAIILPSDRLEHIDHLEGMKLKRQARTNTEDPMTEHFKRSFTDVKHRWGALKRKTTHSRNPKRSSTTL
Experimental: as §2, §3

HminK [4] = target: T1, HminK; assay: Potassium ion currents of HminK mRNA transcripts expressed in Xenopus oocytes; type: cell-based; details: Xenopus oocytes expressing the HminK transcripts; clofilium 50 μM
Experimental: For further verification, mRNA transcripts were expressed in Xenopus oocytes. The expression products caused potassium ion currents that are blocked by clofilium (50 μM) and kinetically indistinguishable from HminK currents reported in the literature. […] Ben Efraim et al., Biochemistry 32: 2371-2377 (1993).

IKr = details: rapid, rectifying component of the delayed rectifier; literature; cited from earlier work
IKs = details: slow component of the delayed rectifier; literature; cited from earlier work
minK = details: literature and personal communication; cited from earlier work
TRK1 [5] = target: T2, TRK1; assay: Inhibition of growth in agar, TRK1 strain; type: cell-based; parameters: key: + indicates compound produced a zone on inhibition; details: cultures grown in inducing medium (2% galactose) embedded in agar; scored after 48-hour incubation at 30° C.
Experimental: as §1

Compound: CC[N+](CC)(CC)CC [TEA Cl]
- Inhibition in agar HminK strain (HminK [1]): +

Compound: CCCCCCC[N+](CC)(CC)CCCCc1ccc(Cl)cc1 [clofilium]
- Inhibition in agar HminK strain (HminK [1]): +
- Block of potassium uptake in the HminK strain (HminK [2]): blocked potassium uptake in the HminK strain
- Block of potassium uptake in the TRK1 strain (TRK1 [3]): not in the TRK1 strain
- Block of potassium ion currents (HminK [4]): blocked
- Block of IKr (IKr): blocked
- Block of IKs (IKs): blocked
- Blockage of minK expressed in Xenopus oocytes (minK): blockage

Compound: CC(C)NCC(O)c1ccc(NS(C)(=O)=O)cc1 (stereo not drawn) [d-sotalol]
- Block of IKr (IKr): blocked
- Block of IKs (IKs): not

Compound: CN(CCOc1ccc(NS(C)(=O)=O)cc1)CCc1ccc(NS(C)(=O)=O)cc1 [dofetilide]
- Block of IKr (IKr): blocked
- Block of IKs (IKs): not

Compound: C=C[C@H]1C[N@@]2CC[C@H]1C[C@@H]2[C@@H](O)c1ccnc2ccc(OC)cc12 [quinidine]
- Inhibition in agar HminK strain (HminK [1]): +
- Inhibition in agar TRK1 strain (TRK1 [5]): +
